According to patent US20260297080A1, “BICYCLIC COMPOUNDS AS CDK INHIBITORS” (BeOne Medicines I GmbH, priority 2022, published 2026):

Experiments:
CDK2/Cyclin E1 = CDK2/Cyclin E1 (Homo sapiens, UniProt P24941); test: CDK2/Cyclin E1 Biochemical Assay (TR-FRET), 0.060 mM ATP; details: 0.15 μM Rb (Ser780)-biotin substrate, pH7.0, 60 min preincubation, 120 min reaction, room temperature
How it was run: (§1)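 IC50 was from a four-parameter logistic fit of the 665/620 nm TR-FRET ratio (Eu anti-pRb Ser780 mAb, streptavidin-XL665). Compound (0-10 μM) was preincubated 60 min with enzyme, then reacted 120 min at room temperature with 0.15 μM biotinylated Rb (Ser780) peptide. ATP was 0.015 mM for CDK1/Cyclin B1 and 0.060 mM for CDK2/Cyclin E1; buffer was HEPES pH7.0.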

CDK1/Cyclin B1 = CDK1/Cyclin B1 (Homo sapiens, UniProt P06493); test: CDK1/Cyclin B1 Biochemical Assay (TR-FRET), 0.015 mM ATP; details: 0.15 μM Rb (Ser780)-biotin substrate, pH7.0, 60 min preincubation, 120 min reaction, room temperature
Chain of CDK1/Cyclin B1 (P06493 whole entry): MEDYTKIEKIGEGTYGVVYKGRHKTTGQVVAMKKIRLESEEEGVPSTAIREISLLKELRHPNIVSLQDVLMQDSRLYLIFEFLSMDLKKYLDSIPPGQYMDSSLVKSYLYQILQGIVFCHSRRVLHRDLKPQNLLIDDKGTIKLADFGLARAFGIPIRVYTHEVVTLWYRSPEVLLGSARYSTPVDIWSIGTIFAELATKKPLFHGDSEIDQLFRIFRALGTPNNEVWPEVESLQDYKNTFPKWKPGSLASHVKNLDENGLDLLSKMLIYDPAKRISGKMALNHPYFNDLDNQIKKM
Chain of CDK1/Cyclin B1 (P14635 whole entry partner): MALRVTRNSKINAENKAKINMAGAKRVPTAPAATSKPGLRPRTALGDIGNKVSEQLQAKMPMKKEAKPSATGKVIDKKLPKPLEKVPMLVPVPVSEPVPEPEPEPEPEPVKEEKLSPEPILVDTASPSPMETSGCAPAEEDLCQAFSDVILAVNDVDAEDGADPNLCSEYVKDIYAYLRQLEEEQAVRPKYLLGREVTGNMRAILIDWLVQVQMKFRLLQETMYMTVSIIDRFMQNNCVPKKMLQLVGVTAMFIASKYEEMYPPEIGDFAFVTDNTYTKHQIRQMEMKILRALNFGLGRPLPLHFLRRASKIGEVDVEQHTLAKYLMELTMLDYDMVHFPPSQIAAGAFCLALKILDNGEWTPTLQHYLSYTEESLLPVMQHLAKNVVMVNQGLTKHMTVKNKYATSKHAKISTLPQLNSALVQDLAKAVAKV
How it was run: as §1

SMILES	IC50 (CDK2/Cyclin E1) [nM]	IC50 (CDK1/Cyclin B1) [nM]
CN1c2ccc(Nc3cc([C@@H]4CC[C@H](OC(=O)NC5(C)CCOC5)C4)[nH]n3)cc2CS1(=O)=O (relative stereo) [Example 239, cis-3-(3-((1-methyl-2,2-dioxido-1,3-dihydrobenzo[c]isothiazol-5-yl)amino)-1H-pyrazol-5-yl)cyclopentyl(3-methyltetrahydrofuran-3-yl)carbamate]	9.6	158
Cc1c(Nc2cc([C@@H]3CC[C@H](OC(=O)NC(C)C)C3)[nH]n2)ccc2c1CS(=O)(=O)N2 (relative stereo) [Example 240, cis-3-(3-((4-methyl-2,2-dioxido-1,3-dihydrobenzo[c]isothiazol-5-yl)amino)-1H-pyrazol-5-yl)cyclopentyl isopropylcarbamate]	3	28
Cc1cc2c(cc1Nc1cc([C@@H]3CC[C@H](OC(=O)NC(C)C)C3)[nH]n1)CS(=O)(=O)N2 (relative stereo) [Example 241, 3-(3-((6-methyl-2,2-dioxido-1,3-dihydrobenzo[c]isothiazol-5-yl)amino)-1H-pyrazol-5-yl)cyclopentyl isopropylcarbamate]	128	4470
Cc1cc(Nc2cc([C@@H]3CC[C@H](OC(=O)NC(C)C)C3)[nH]n2)cc2c1NS(=O)(=O)C2 (relative stereo) [Example 242, cis-3-(3-((7-methyl-2,2-dioxido-1,3-dihydrobenzo[c]isothiazol-5-yl)amino)-1H-pyrazol-5-yl)cyclopentyl isopropylcarbamate]	5.1	70
Cc1c(Nc2cc([C@@H]3CC[C@H](OC(=O)NC(C)C)C3)[nH]n2)ccc2c1CS(=O)(=O)N2C (relative stereo) [Example 243, cis-3-(3-((1,4-dimethyl-2,2-dioxido-1,3-dihydrobenzo[c]isothiazol-5-yl)amino)-1H-pyrazol-5-yl)cyclopentyl isopropylcarbamate]	37	978
Cc1cc2c(cc1Nc1cc([C@@H]3CC[C@H](OC(=O)NC(C)C)C3)[nH]n1)CS(=O)(=O)N2C (relative stereo) [Example 244, cis-3-(3-((1,6-dimethyl-2,2-dioxido-1,3-dihydrobenzo[c]isothiazol-5-yl)amino)-1H-pyrazol-5-yl)cyclopentyl isopropylcarbamate]	1060	7260
Cc1cc(Nc2cc([C@@H]3CC[C@H](OC(=O)NC(C)C)C3)[nH]n2)cc2c1N(C)S(=O)(=O)C2 (relative stereo) [Example 245, cis-3-(3-((1,7-dimethyl-2,2-dioxido-1,3-dihydrobenzo[c]isothiazol-5-yl)amino)-1H-pyrazol-5-yl)cyclopentyl isopropylcarbamate]	44	941
CCCNC(=O)O[C@H]1CC[C@@H](c2cc(Nc3ccc4c(c3)CCS(=O)(=O)N4)n[nH]2)C1 (relative stereo) [Example 247, cis-3-(3-((2,2-dioxido-3,4-dihydro-1H-benzo[c][1,2]thiazin-6-yl)amino)-1H-pyrazol-5-yl)cyclopentyl propylcarbamate]	9.7	79
CC[C@H](C)NC(=O)O[C@H]1CC[C@@H](c2cc(Nc3ccc4c(c3)CCS(=O)(=O)N4)n[nH]2)C1 (relative stereo) [Example 248, cis-3-(3-((2,2-dioxido-3,4-dihydro-1H-benzo[c][1,2]thiazin-6-yl)amino)-1H-pyrazol-5-yl)cyclopentyl((S)-sec-butyl)carbamate]	2.6	49
CC(C)NC(=O)O[C@H]1CC[C@@H](c2cc(Nc3ccc4c(c3)CCS(=O)(=O)N4C)n[nH]2)C1 (relative stereo) [Example 250, cis-3-(3-((1-methyl-2,2-dioxido-3,4-dihydro-1H-benzo[c][1,2]thiazin-6-yl)amino)-1H-pyrazol-5-yl)cyclopentyl isopropylcarbamate]	2.1	30
COCCN1c2ccc(Nc3cc([C@@H]4CC[C@H](OC(=O)NC(C)C)C4)[nH]n3)c(F)c2CS1(=O)=O (relative stereo) [Example 252, cis-3-(3-((4-fluoro-1-(2-methoxyethyl)-2,2-dioxido-1,3-dihydrobenzo[c]isothiazol-5-yl)cyclopentyl isopropylcarbamate]	3.8	79
CC(C)NC(=O)O[C@H]1CC[C@@H](c2cc(Nc3ccc4c(c3F)C(CCO)S(=O)(=O)N4CCO)n[nH]2)C1 (relative stereo) [Example 253, cis-3-(3-((4-fluoro-1,3-bis(2-hydroxyethyl)-2,2-dioxido-1,3-dihydrobenzo[c]isothiazol-5-yl)amino)-1H-pyrazol-5-yl)cyclopentyl isopropylcarbamate]	4.3	96
CN1c2ccc(Nc3cc([C@@H]4CC[C@H](OC(=O)NC5(C)CC5)C4)[nH]n3)c(F)c2CS1(=O)=O (relative stereo) [Example 257, cis-3-(3-((4-fluoro-1-methyl-2,2-dioxido-1,3-dihydrobenzo[c]isothiazol-5-yl)amino)-1H-pyrazol-5-yl)cyclopentyl(1-methylcyclopropyl)carbamate]	1.5	33
CC[C@H](C)NC(=O)O[C@H]1CC[C@@H](c2cc(Nc3ccc4c(c3F)CS(=O)(=O)N4C)n[nH]2)C1 (relative stereo) [Example 258, cis-3-(3-((4-fluoro-1-methyl-2,2-dioxido-1,3-dihydrobenzo[c]isothiazol-5-yl)amino)-1H-pyrazol-5-yl)cyclopentyl((S)-sec-butyl)carbamate]	1.5	37

Results, then the compound that gave them:

IC50 (CDK2/Cyclin E1) [nM]	IC50 (CDK1/Cyclin B1) [nM]	SMILES
1.3	33	CC1(NC(=O)O[C@H]2CC[C@@H](c3cc(Nc4ccc5c(c4F)CS(=O)(=O)N5C4COC4)n[nH]3)C2)CC1 (relative stereo) [Example 262, cis-3-(3-((4-fluoro-1-(oxetan-3-yl)-2,2-dioxido-1,3-dihydrobenzo[c]isothiazol-5-yl)amino)-1H-pyrazol-5-yl)cyclopentyl(1-methylcyclopropyl)carbamate]
5.6	61	[2H]C([2H])([2H])N1c2ccc(Nc3cc([C@@H]4CC[C@H](OC(=O)N[C@@H](C)CC)C4)[nH]n3)c(F)c2CS1(=O)=O (relative stereo) [Example 269, cis-3-(3-((4-fluoro-1-(methyl-d3)-2,2-dioxido-1,3-dihydrobenzo[c]isothiazol-5-yl)amino)-1H-pyrazol-5-yl)cyclopentyl((S)-sec-butyl)carbamate]
1.7	37	[2H]C([2H])([2H])N1c2ccc(Nc3cc([C@@H]4CC[C@H](OC(=O)NC5(C)CC5)C4)[nH]n3)c(F)c2CS1(=O)=O (relative stereo) [Example 270, cis-3-(3-((4-fluoro-1-(methyl-d3)-2,2-dioxido-1,3-dihydrobenzo[c]isothiazol-5-yl)amino)-1H-pyrazol-5-yl)cyclopentyl(1-methylcyclopropyl)carbamate]
2.5	43	CC[C@H](C)NC(=O)O[C@H]1CC[C@@H](c2cc(Nc3ccc4c(c3F)CS(=O)(=O)N4CCO)n[nH]2)C1 (relative stereo) [Example 273, cis-3-(3-((4-fluoro-1-(2-hydroxyethyl)-2,2-dioxido-1,3-dihydrobenzo[c]isothiazol-5-yl)amino)-1H-pyrazol-5-yl)cyclopentyl((S)-sec-butyl)carbamate]
1	22	CC1(NC(=O)O[C@H]2CC[C@@H](c3cc(Nc4ccc5c(c4F)CS(=O)(=O)N5CCO)n[nH]3)C2)CC1 (relative stereo) [Example 274, cis-3-(3-((4-fluoro-1-(2-hydroxyethyl)-2,2-dioxido-1,3-dihydrobenzo[c]isothiazol-5-yl)amino)-1H-pyrazol-5-yl)cyclopentyl(1-methylcyclopropyl)carbamate]
5	111	CCCNC(=O)O[C@H]1CC[C@@H](c2cc(Nc3ccc4c(c3F)CS(=O)(=O)N4C3CC3)n[nH]2)C1 (relative stereo) [Example 276, cis-3-(3-((1-cyclopropyl-4-fluoro-2,2-dioxido-1,3-dihydrobenzo[c]isothiazol-5-yl)amino)-1H-pyrazol-5-yl)cyclopentyl propylcarbamate]
1.7	36	CC1(NC(=O)O[C@H]2CC[C@@H](c3cc(Nc4ccc5c(c4F)CS(=O)(=O)N5C4CC4)n[nH]3)C2)CC1 (relative stereo) [Example 277, cis-3-(3-((1-cyclopropyl-4-fluoro-2,2-dioxido-1,3-dihydrobenzo[c]isothiazol-5-yl)amino)-1H-pyrazol-5-yl)cyclopentyl(1-methylcyclopropyl)carbamate]
1.3	56	CC[C@H](C)NC(=O)O[C@H]1CC[C@@H](c2cc(Nc3ccc4c(c3F)CS(=O)(=O)N4C3CC3)n[nH]2)C1 (relative stereo) [Example 278, cis-3-(3-((1-cyclopropyl-4-fluoro-2,2-dioxido-1,3-dihydrobenzo[c]isothiazol-5-yl)amino)-1H-pyrazol-5-yl)cyclopentyl((S)-sec-butyl)carbamate]
0.7	43	CC(C)NC(=O)O[C@H]1CC[C@@H](c2cc(Nc3cc(F)c4c(c3)CS(=O)(=O)N4)n[nH]2)C1 (relative stereo) [Example 279, cis-3-(3-((7-fluoro-2,2-dioxido-1,3-dihydrobenzo[c]isothiazol-5-yl)amino)-1H-pyrazol-5-yl)cyclopentyl isopropylcarbamate]
10	149	CC(C)NC(=O)O[C@H]1CC[C@@H](c2cc(Nc3cc(F)c4c(c3)CS(=O)(=O)N4C)n[nH]2)C1 (relative stereo) [Example 280, cis-3-(3-((7-fluoro-1-methyl-2,2-dioxido-1,3-dihydrobenzo[c]isothiazol-5-yl)amino)-1H-pyrazol-5-yl)cyclopentyl isopropylcarbamate]
